T1: IL-8 type β receptor (IL-8Rβ) (Homo sapiens, UniProt P25025)
T1 construct: purchased BioSignal, Montreal, Canada; host or cells: Sf9 cells
T1 sequence (P25025 1-360): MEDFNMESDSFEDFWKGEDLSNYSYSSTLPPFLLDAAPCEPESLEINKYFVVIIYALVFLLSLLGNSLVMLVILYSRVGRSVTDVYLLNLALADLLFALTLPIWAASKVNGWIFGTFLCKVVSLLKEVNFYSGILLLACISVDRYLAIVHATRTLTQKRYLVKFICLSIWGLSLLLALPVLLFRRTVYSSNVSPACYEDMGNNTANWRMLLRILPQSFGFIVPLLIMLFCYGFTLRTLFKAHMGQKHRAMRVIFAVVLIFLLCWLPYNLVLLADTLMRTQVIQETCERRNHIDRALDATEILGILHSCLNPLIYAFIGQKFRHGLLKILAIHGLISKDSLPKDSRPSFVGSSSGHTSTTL


Legend:
[1] = molecular target: T1, IL-8 type β receptor (IL-8Rβ); experiment: [125I] IL-8 binding assay (WGA-SPA beads, IL-8Rβ membranes); conditions: 20 uM compound; [125I] IL-8, IL-8Rβ membranes
Procedure: IL-8 (human recombinant) was obtained from NEN Life Science Products, Inc., Boston, Mass., with specific activity of 2200 Ci/mmol. Recombinant human IL-8 was obtained from R&D Systems, Minneapolis, Minn. IL-8 type β receptor membranes were prepared from […] co-expressed with Gαi3β1γ2 proteins by BioSignal™, Montreal, Canada. Wheat Germ Agglutinin Scintillation Proximity Assay Beads were obtained from Amersham Pharmacia Biotech, Piscataway, N.J. All assays were performed in a 96-well, solvent resistant, white PicoPlate obtained from Packard Instruments. […] The assay was initiated by the addition of WGA-SPA beads in 25 mM Hepes (pH 7.4) containing 2 mM CaCl2 and 1 mM MgCl2. After 4–6 hours of gentle agitation at room temperature, the plate was counted on the Packard TopCount liquid scintillation counter.

[2] = test system: polymorphonuclear neutrophils (PMNs); experiment: GRO-α driven chemotaxis assay with PMNs (ChemoTx plate); type: cell-based; conditions: 20 μM compound; 50 nM GRO-α, human PMNs
Procedure: Peripheral blood from healthy human volunteers was collected into heparin, diluted in an equal volume of PBS, layered over Ficoll-Paque Plus (Pharmacia Biotech, Uppsala, Sweden), and spun at 400×g for 30 min. The PMN rich fraction was removed and residual erythrocytes were lysed with hypotonic saline. The polymorphonuclear neutrophils (PMNs) were washed once with assay buffer (Dulbecco's PBS containing divalent cations and 0.1% endotoxin-free BSA), and resuspended at 1E7 cells/mL in the same buffer. PMNs were loaded with 5 μM calcein AM (Molecular Probes, Eugene, Oreg.), washed twice and resuspended in assay buffer.
Growth Regulatory Oncogene a (GRO-α) driven chemotaxis assays were performed according to the following protocol. […] Test compounds were dissolved in DMSO (100%) at 20 mM and diluted in assay buffer to the desired concentrations; final DMSO concentration was 0.2%. Neutrophil migration proceeded for 40 min at 37° C. in a humidified incubator with 5% CO2. After removing nonmigrated cells from the top of the plate, migrated cells were quantified by reading fluorescence on a Wallac Victor.
The ratio of the positive to negative controls represents the chemotactic index of the cells. The results from this assay are reported in Tables 3–5, under the column headings IL-8 and GRO-α, and under the sub-column headings ChTx (for chemotaxis).

[3] = molecular target: T2, human chemokine CCR5 receptor (Homo sapiens, UniProt P51681); conditions: CCR5 reference data; cited from earlier work
T2 construct: host or cells: CHO-K1-p242-CCR5 cells
T2 sequence (P51681 whole entry): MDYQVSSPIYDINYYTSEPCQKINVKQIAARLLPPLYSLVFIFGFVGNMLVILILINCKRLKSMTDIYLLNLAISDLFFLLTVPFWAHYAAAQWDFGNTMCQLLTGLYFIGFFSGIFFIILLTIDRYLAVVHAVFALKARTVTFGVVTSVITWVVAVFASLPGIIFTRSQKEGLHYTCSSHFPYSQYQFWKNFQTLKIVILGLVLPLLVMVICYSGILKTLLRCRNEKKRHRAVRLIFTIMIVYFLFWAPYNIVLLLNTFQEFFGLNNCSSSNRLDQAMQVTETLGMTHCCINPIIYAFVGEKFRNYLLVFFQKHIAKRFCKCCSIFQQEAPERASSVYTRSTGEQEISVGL

| Molecule | IL-8 Binding @ 20 uM, % [1] | GRO-α ChTx @ 20 μM, % [2] | IC50 [3] [pM] | Ki [3] [pM] | nH [3] |
| --- | --- | --- | --- | --- | --- |
| O=C(NC(c1ccccc1)c1ccccc1)c1ccc(Cl)[n+]([O-])c1 | * (“*” for % values of less than or equal to 40) | ** (“**” for % values greater than 40) | – | – | – |
| O=C(Nc1ccccc1F)c1ccc(Cl)[n+]([O-])c1 | * (“*” for % values of less than or equal to 40) | ** (“**” for % values greater than 40) | – | – | – |
| O=C(Nc1cc(C(F)(F)F)cc(C(F)(F)F)c1)c1ccc(Cl)[n+]([O-])c1 | * (“*” for % values of less than or equal to 40) | * (“*” for % values of less than or equal to 40) | – | – | – |
| O=C(Nc1cccc(OC(F)(F)F)c1)c1ccc(Cl)[n+]([O-])c1 | * (“*” for % values of less than or equal to 40) | * (“*” for % values of less than or equal to 40) | – | – | – |
| Cc1cc(F)ccc1NC(=O)c1ccc(Cl)[n+]([O-])c1 | * (“*” for % values of less than or equal to 40) | ** (“**” for % values greater than 40) | – | – | – |
| O=C(Nc1cccc(F)c1)c1ccc(Cl)[n+]([O-])c1 | * (“*” for % values of less than or equal to 40) | ** (“**” for % values greater than 40) | – | – | – |
| O=C(Nc1ccc(I)cc1)c1ccc(Cl)[n+]([O-])c1 | * (“*” for % values of less than or equal to 40) | ** (“**” for % values greater than 40) | – | – | – |
| CC(C)(C)c1ccc(NC(=O)c2ccc(Cl)[n+]([O-])c2)cc1 | * (“*” for % values of less than or equal to 40) | ** (“**” for % values greater than 40) | – | – | – |
| CCOc1cccc(NC(=O)c2ccc(Cl)[n+]([O-])c2)c1 | * (“*” for % values of less than or equal to 40) | C* | – | – | – |
| NC(=O)c1cccc(NC(=O)c2ccc(Cl)[n+]([O-])c2)c1 | * (“*” for % values of less than or equal to 40) | * (“*” for % values of less than or equal to 40) | – | – | – |
| O=C(NCc1ccccc1)c1ccc(Cl)[n+]([O-])c1 | * (“*” for % values of less than or equal to 40) | * (“*” for % values of less than or equal to 40) | – | – | – |
| O=C(NCc1ccc(F)cc1)c1ccc(Cl)[n+]([O-])c1 | * (“*” for % values of less than or equal to 40) | * (“*” for % values of less than or equal to 40) | – | – | – |
| O=C(NC1CCCC1)c1ccc(Cl)[n+]([O-])c1 | * (“*” for % values of less than or equal to 40) | * (“*” for % values of less than or equal to 40) | – | – | – |
| O=C(NCc1ccco1)c1ccc(Cl)[n+]([O-])c1 | * (“*” for % values of less than or equal to 40) | * (“*” for % values of less than or equal to 40) | – | – | – |
| O=C(Nc1ccc(F)cc1)c1ccc(Cl)[n+]([O-])c1 [Cl—, 6-Chloro-N-(4-fluoro-phenyl)-1-oxy-nicotinamide] | **(1) (“**” for % values greater than 40) | ** (“**” for % values greater than 40) | – | – | – |
| CS(=O)(=O)c1ccc(C(=O)Nc2ccc(F)cc2)c[n+]1[O-] [drawing 44] | ** (“**” for % values greater than 40) | ** (“**” for % values greater than 40) | – | – | – |
| O=C(Nc1ccc(F)cc1)c1ccc(S(=O)(=O)c2ccccc2)[n+]([O-])c1 [drawing 47] | ** (“**” for % values greater than 40) | ** (“**” for % values greater than 40) | – | – | – |
| CCS(=O)(=O)c1ccc(C(=O)Nc2ccc(F)cc2)c[n+]1[O-] [drawing 49] | ** (“**” for % values greater than 40) | ** (“**” for % values greater than 40) | – | – | – |
| CCCS(=O)(=O)c1ccc(C(=O)Nc2ccc(F)cc2)c[n+]1[O-] [drawing 51] | ** (“**” for % values greater than 40) | ** (“**” for % values greater than 40) | – | – | – |
| O=C(Nc1ccc(F)cc1)c1ccc(S(=O)(=O)Cc2ccccc2)[n+]([O-])c1 [drawing 52] | ** (“**” for % values greater than 40) | ** (“**” for % values greater than 40) | – | – | – |
| O=C(Nc1ccc(F)cc1)c1ccc(S(=O)(=O)C2CCCC2)[n+]([O-])c1 [drawing 53] | ** (“**” for % values greater than 40) | ** (“**” for % values greater than 40) | – | – | – |
| O=C(Nc1ccc(F)c(F)c1)c1ccc(Cl)[n+]([O-])c1 [drawing 70] | * (“*” for % values of less than or equal to 40) | ** (“**” for % values greater than 40) | – | – | – |
| MIP-1α: microphage inflammatory protein | – | – | 39 | 30 | 0.8 |
| RANTES: regulated on activation of normal T-cell expressed and secreted | – | – | 12 | 9.3 | 0.9 |
| MIP-1β: microphage inflammatory protein; standard reference agent used in CCR5 assay (protein, UniProt P13236 24-92, looked up, ends and bridges not checked) C-C motif chemokine 4: APMGSDPPTACCFSYTARKLPRNFVVDYYETSSLCSQPAVVFQTKRSKQVCADPSESWVQEYVYDLELN | – | – | 74 | 57 | 0.9 |
